Values joined by “and” are separate entries in the source; they are usually repeats but may differ in a detail not shown here. Equal values may be shown once.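 How tested: cells in 96-well plates exposed to compound for 48 hours at five concentrations. GI50 = concentration required for 50% inhibition of growth. The concentration for full growth arrest is given as TGI.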

One assay deals with EKVX NSCLC. As to the kind of experiment: growth of human tumour cells (NCI), 48 h.
As for `CCCCC(=O)OCC(=O)[C@]1(O)Cc2c(O)c3c(c(O)c2[C@@H](OC2CC(NC(=O)C(F)(F)F)C(O)C(C)O2)C1)C(=O)c1c(OC)cccc1C3=O` (some centres not stated), the TGI came to 13.5 µM.

For the molecule `CCN(CCO)CC1CCCC2CCCCC21` (configuration not stated), the TGI is > 100 µM.

Consider `NC(Cc1c[nH]c2c(O)cccc12)C(=O)O` (configuration not stated), for which the GI50 was > 100 µM and the TGI was > 100 µM.

On to `CCCCOC(=O)C1OC(O[C@H]2CCC3(C)C(CCC4(C)C3CC=C3C5CC(C)(C)CCC5(C(=O)O)CC[C@]34C)C2(C)C)C(OC2OC(CO)C(O)C(O)C2O)C(OC2OC(CO)C(O)C(O)C2O)C1O` (some centres not stated), for which the GI50 was 24.4 µM and the TGI was found to be 49.7 µM.

For the molecule `NNC(=O)Nc1cccnc1`, the TGI is > 100 µM.

With `CCCCCN(CCCCC)CCCNc1c2c(nc3ccc(Cl)cc13)CCCC2`, the GI50 was 2.78 µM and the TGI came out at 13.6 µM.

The molecule `C=C1C(=O)C23CC1CCC2C12CO[C@@H]4OCC(C)(CC[C@@H]1OC3=O)C42` (some centres not stated) came in with a TGI of 32.1 µM.

For `CN/N=C(/Cc1occc(=O)c1O)C(=O)Nc1ccccc1C`, the TGI is > 100 µM.

In a further assay the test system is M14 melanoma. The experiment in a line: growth of human tumour cells (NCI), 48 h.
On to `CCOC(=O)[C@]1(OC(C)=O)C[C@H](OC(C)=O)[C@@H](C(F)COP(=O)(OCc2ccccc2)OCc2ccccc2)O1` (some centres not stated), for which the GI50 is 49.4 µM and > 100 µM; the TGI was > 100 µM.

As to `CC[C@@]1(O)C[C@H](OC2CC(N(C)C)C(O)C(C)O2)c2c(O)c3c(c(O)c2[C@H]1OC1CC(N(C)C)C(O)C(C)O1)C(=O)c1cccc(O)c1C3=O` (some centres not stated), the GI50 was < 0.01 µM.

Consider `CC1(C)CCc2c(c3c(c4c(=O)c(O)c(-c5ccc(O)cc5)oc24)OC(C)(C)CC3)O1`, for which the GI50 was > 100 µM and the TGI was > 100 µM.

Take `O=C(Nc1ccccc1)NS(=O)(=O)c1ccc(-n2nc3c(c2-c2cccs2)Cc2ccccc2-3)cc1`: the GI50 is 25 µM and the TGI amounted to 47 µM.

Consider `CCCCCN(CCCCC)CC(O)c1cc(C)c2ccc3cc(C(C)C)ccc3c2c1` (configuration not stated), for which the GI50 was 1.77 µM and the TGI was found to be 3.7 µM.

For the molecule `CC1=C(C(=O)Nc2ccc(Cl)c(Cl)c2)C(c2cccc(Oc3ccccc3)c2)NC(=S)N1` (configuration not stated), the GI50 was 9.21 µM and the TGI worked out at 20.1 µM.

For the molecule `CSc1nc2c(c(=O)[nH]1)N=C1c3ccccc3C(=O)C1C(c1ccccc1)N2` (configuration not stated), the GI50 was 3.29 µM and the TGI was > 100 µM.

Turning to `C=C(CN1CCN(c2ccc(Cl)cc2F)CC1)c1ccc(C(=O)Nc2ccccc2N)cc1`, the GI50 is 2.03 µM.

In turn, `CCCCC(=O)OCC(=O)[C@]1(O)Cc2c(O)c3c(c(O)c2[C@@H](OC2CC(NC(=O)C(F)(F)F)C(O)C(C)O2)C1)C(=O)c1c(OC)cccc1C3=O` (some centres not stated) came in with a TGI of 8.62 µM.

Take `CCN(CCO)CC1CCCC2CCCCC21` (configuration not stated): the TGI is > 100 µM.

As to `NC(Cc1c[nH]c2c(O)cccc12)C(=O)O` (configuration not stated), the GI50 was > 100 µM and the TGI is > 100 µM.

For `CCCCOC(=O)C1OC(O[C@H]2CCC3(C)C(CCC4(C)C3CC=C3C5CC(C)(C)CCC5(C(=O)O)CC[C@]34C)C2(C)C)C(OC2OC(CO)C(O)C(O)C2O)C(OC2OC(CO)C(O)C(O)C2O)C1O` (some centres not stated), the GI50 was 17.8 µM and the TGI worked out at 32.7 µM.

Consider `Cn1cc(C2=C(c3cn(C)c4ncccc34)C(=O)NC2=O)c2ccccc21`, for which the GI50 was 9.74 µM and the TGI is > 25 µM.

For the molecule `NNC(=O)Nc1cccnc1`, the TGI is > 100 µM.

Turning to `C#Cc1ccc(-n2c(/C=C/c3ccc(C(F)(F)F)cc3)nc3ncccc3c2=O)cc1`, the GI50 was 2.07 µM and the TGI worked out at 4.27 µM.

Consider `CCCCCN(CCCCC)CCCNc1c2c(nc3ccc(Cl)cc13)CCCC2`, for which the GI50 was 1.8 µM and the TGI was determined as 3.41 µM.

`C=C1C(=O)C23CC1CCC2C12CO[C@@H]4OCC(C)(CC[C@@H]1OC3=O)C42` (some centres not stated) registered a TGI of 2.88 µM.

Take `CN/N=C(/Cc1occc(=O)c1O)C(=O)Nc1ccccc1C`: the TGI was > 100 µM.

In another assay the test system is MOLT-4 leukemia. The experiment in a line: growth of human tumour cells (NCI), 48 h.
In the case of `CCOC(=O)[C@]1(OC(C)=O)C[C@H](OC(C)=O)[C@@H](C(F)COP(=O)(OCc2ccccc2)OCc2ccccc2)O1` (some centres not stated), the TGI is > 100 µM.

For the molecule `CC[C@@]1(O)C[C@H](OC2CC(N(C)C)C(O)C(C)O2)c2c(O)c3c(c(O)c2[C@H]1OC1CC(N(C)C)C(O)C(C)O1)C(=O)c1cccc(O)c1C3=O` (some centres not stated), the GI50 was < 0.01 µM and the TGI worked out at 0.0573 µM.

With `CC1(C)CCc2c(c3c(c4c(=O)c(O)c(-c5ccc(O)cc5)oc24)OC(C)(C)CC3)O1`, the GI50 is 37.2 µM and the TGI was > 100 µM.

As for `O=C(Nc1ccccc1)NS(=O)(=O)c1ccc(-n2nc3c(c2-c2cccs2)Cc2ccccc2-3)cc1`, the GI50 was 15.5 µM and the TGI is > 100 µM.

Take `CCCCCN(CCCCC)CC(O)c1cc(C)c2ccc3cc(C(C)C)ccc3c2c1` (configuration not stated): the GI50 is 2.21 µM and the TGI is 4.72 µM.

For `CC1=C(C(=O)Nc2ccc(Cl)c(Cl)c2)C(c2cccc(Oc3ccccc3)c2)NC(=S)N1` (configuration not stated), the GI50 is > 50 µM and the TGI is > 50 µM.

In the case of `CSc1nc2c(c(=O)[nH]1)N=C1c3ccccc3C(=O)C1C(c1ccccc1)N2` (configuration not stated), the GI50 is 5.24 µM and the TGI is > 100 µM.

Regarding `NC(Cc1c[nH]c2c(O)cccc12)C(=O)O` (configuration not stated), the GI50 is > 100 µM and the TGI was > 100 µM.

Consider `CCCCOC(=O)C1OC(O[C@H]2CCC3(C)C(CCC4(C)C3CC=C3C5CC(C)(C)CCC5(C(=O)O)CC[C@]34C)C2(C)C)C(OC2OC(CO)C(O)C(O)C2O)C(OC2OC(CO)C(O)C(O)C2O)C1O` (some centres not stated), for which the GI50 was 7.77 µM and the TGI came to 36.4 µM.

For `Cn1cc(C2=C(c3cn(C)c4ncccc34)C(=O)NC2=O)c2ccccc21`, the GI50 is 7.54 µM and the TGI was > 24 µM.

Regarding `C#Cc1ccc(-n2c(/C=C/c3ccc(C(F)(F)F)cc3)nc3ncccc3c2=O)cc1`, the GI50 is 3.01 µM and the TGI was 8.81 µM.

In turn, `C=C1C(=O)C23CC1CCC2C12CO[C@@H]4OCC(C)(CC[C@@H]1OC3=O)C42` (some centres not stated) gave a TGI of 9.7 µM.

As for `CN/N=C(/Cc1occc(=O)c1O)C(=O)Nc1ccccc1C`, the TGI was > 100 µM.

The next assay has as its system NCI-H226 lung. The experiment in a line: growth of human tumour cells (NCI), 48 h.
On to `CCOC(=O)[C@]1(OC(C)=O)C[C@H](OC(C)=O)[C@@H](C(F)COP(=O)(OCc2ccccc2)OCc2ccccc2)O1` (some centres not stated), for which the TGI was > 100 µM.

For `CC[C@@]1(O)C[C@H](OC2CC(N(C)C)C(O)C(C)O2)c2c(O)c3c(c(O)c2[C@H]1OC1CC(N(C)C)C(O)C(C)O1)C(=O)c1cccc(O)c1C3=O` (some centres not stated), the GI50 is < 0.01 µM.

Take `CC1(C)CCc2c(c3c(c4c(=O)c(O)c(-c5ccc(O)cc5)oc24)OC(C)(C)CC3)O1`: the GI50 was 58.5 µM and the TGI was > 100 µM.

Values taken from PubChem BioAssay (NCI).
